Like-named read-outs stand apart in the source and are kept apart here.
Legend:
[1] = tested on: promoter of yeast gene YCR102c; assay type: cell-based, Saccharomyces cerevisiae W303
Source text: (§1) The inventors of the present application understood that the induction of certain yeast genes by toxic substances is caused by the activation of the promoters of the genes by the toxic substances. Thus, the inventors prepared a vector that comprised a polynucleotide sequence comprising the promoter of the yeast gene, which sequence is operably linked to a polynucleotide encoding a marker protein; and transformed yeast cells with the vector. […] The working examples hereinafter illustrate the preparation of such vectors, transformation of yeast cells by use of said vectors, and the detection of toxic substances by use of the transformed cells.
(§2) Promoter assay is a method for determining variations of the level of intracellular genes without destroying cells on the basis of the level of expressed marker genes instead of the expressed mRNA. The gene selected to detect a chemical substance is expressed in the absence of chemical substances, and thus a marker protein also occurs in the absence of chemical substances. In the method according to the present invention, the behavior of yeast genes on the addition of test materials is determined on the basis of the level of expressed marker protein so that the presence or the absence, and the kind of toxic chemical substances are predicted. Thus, it is desired that the production of marker proteins is lower in the absence of chemical substances, and the production of marker proteins is higher in the presence of chemical substances.
(§3) Type YEp shuttle vector pYES2 (pYES2, Cat no: V825-20, Invirtogen Corporation, USA), which can be replicated both in E. coli. and yeast was used as vector (R. W. Old, S. B. Primrose Principles of Gene Manipulation 5th Ed., BAIFUKAN CO., LTD, pp138-165, pp.234-263, 2000). The portion of vector PQBI 63 (Cat no.54-0082, Wako Pure Chemical Industries, Ltd.) corresponding to a marker protein GFP was used as the polynucleotide encoding GFP (SEQ ID No: 6). First, the GFP polynucleotide was inserted into the multiple cloning sites of pYES2 to give a vector. Thereafter, the GALL promoter of pYES2 was replaced with the polynucleotide comprising the promoter sequence of the intended yeast gene YCR102c (SEQ ID No: 2) to give an intended plasmid vector. Suitable restriction enzymes were selected, and the insertion of the polynucleotide comprising GFP and the promoter sequence was conducted.
(§4) Next, the yeast Saccharomyces cerevisiae W303 was transformed with the resultant plasmid vector according to the following procedures: • 1) Incubating the yeast Saccharomyces cerevisiae W303 in 200 ml of SD medium under shaking until OD 660 reaches 0.5; • 2) Suspending the collected cells in 5 ml of TE-buffer; • 3) Adding 250 μL of 2.5M lithium acetate; • 4) Dispending each 300 μl, adding 10 μl of above plasmid vector thereto, then incubating the suspensions at 30° C. for 30 minutes; • 5) Adding 700 μl of 50% PEG4000, and incubating the mixture under shaking at 30° C. for 60 minutes; • 6) Giving heat shock (42° C., 5 minutes), and then immediately cooling the mixture; • 7) Washing the mixture twice with 1M sorbitol; and • 8) Seeding it on agar plates made of minimum essential medium.
(§5) The cells of SC-YCR102C-pQBI as prepared in Example 3 were contacted to one of the following compounds. The yeast cells SC-YCR102C-pQBI were incubated at 25° C. in SD medium (Yeast nitrogen base without amino acids (Difco 0919-15)+glucose+amino acids (adenine, histidine, tryptophan)). One of toxic chemical substances as shown below was added to the cells at logarithmic growth phase, and then the cells were further incubated for two hours.

[2] = tested on: promoter of yeast gene YLL057c; assay type: cell-based, Saccharomyces cerevisiae W303; details: for expression of GFP: SC-YLL057C-pQBI cells, summary of Table 13
Source text: as §1, §2
as §3, with “YLL057c” for “YCR102c”, “4)” for “2)”
as §4
as §5, with “SC-YLL057C-pQBI” for “SC-YCR102C-pQBI”, “5” for “3”

[3] = cells SC-YCR102C-pQBI, 2 hours incubation with the substance at the concentration printed in its row (column Concentrations), GFP fluorescence vs control without chemical
[4] = cells SC-YLL057C-pQBI, 2 hours incubation with the substance at the concentration printed in its row (column Concentrations), GFP fluorescence vs control without chemical

Compound	Fluorescence [1, 3]	Fluorescence [2, 4]	further results
CCCCC(CC)COC(=O)c1ccccc1C(=O)OCC(CC)CCCC (stereo not shown)	− (the number of the cells having a higher fluorescence than the control was under 1%)	− (the number of the cells having a higher fluorescence than the control was under 1%)	
CN(C)C(=S)SSC(=S)N(C)C [(10), Tetramethylthiuram disulfide]			expression of GFP ([1]; SC-YCR102C-pQBI cells, summary of Table 11): induced the expression of GFP
CCN(CC)C(=O)SCc1ccc(Cl)cc1 [S-4-Chlorobenzyl-N,N-diethylthiocarbamate]	− (the number of the cells having a higher fluorescence than the control was under 1%)	− (the number of the cells having a higher fluorescence than the control was under 1%)	
CC(=O)O.Cc1nc(N)cc2[nH]c3ccccc3c12 [Trp-P-2 (acetate)]			Fluorescence [1]: − (key: −: the number of the cells having a higher fluorescence than the control was under 1%; +: between 1% and 2%; ++: 2% or more); Fluorescence [2]: − (key: −: the number of the cells having a higher fluorescence than the control was under 1%; +: between 1% and 2%; ++: 2% or more)
O=S(=O)([O-])[O-].[Cu+2] [copper sulfate (II)]			Fluorescence [1]: − (key: −: the number of the cells having a higher fluorescence than the control was under 1%; +: between 1% and 2%; ++: 2% or more); Fluorescence [2]: − (key: −: the number of the cells having a higher fluorescence than the control was under 1%; +: between 1% and 2%; ++: 2% or more)
CCOC(=O)CC(SP(=S)(OC)OC)C(=O)OCC (stereo not shown) [malathon]	− (the number of the cells having a higher fluorescence than the control was under 1%)	− (the number of the cells having a higher fluorescence than the control was under 1%)	
[CH3][Hg][Cl] [methylmercury chloride]	− (the number of the cells having a higher fluorescence than the control was under 1%)	− (the number of the cells having a higher fluorescence than the control was under 1%)	
[Cl][Ni][Cl] [nickel (II) chloride]			Fluorescence [1]: − (key: −: the number of the cells having a higher fluorescence than the control was under 1%; +: between 1% and 2%; ++: 2% or more); Fluorescence [2]: − (key: −: the number of the cells having a higher fluorescence than the control was under 1%; +: between 1% and 2%; ++: 2% or more)
[K+].[K+].[O]=[Cr](=[O])([O-])[O][Cr](=[O])(=[O])[O-] [potassium bichromate]	− (the number of the cells having a higher fluorescence than the control was under 1%)	− (the number of the cells having a higher fluorescence than the control was under 1%)	
[Cl][Sn]([c]1ccccc1)([c]1ccccc1)[c]1ccccc1 [triphenyltin chloride]	− (the number of the cells having a higher fluorescence than the control was under 1%)	− (the number of the cells having a higher fluorescence than the control was under 1%)	
CdCl2 [(2)]	− (the number of the cells having a higher fluorescence than the control was under 1%)	++ (2% or more)	expression of GFP [2]: induced the expression of GFP
HgCl2 [(3)]	− (the number of the cells having a higher fluorescence than the control was under 1%)	− (the number of the cells having a higher fluorescence than the control was under 1%)	
Na2As [(1)]	− (the number of the cells having a higher fluorescence than the control was under 1%)	++ (2% or more)	expression of GFP [2]: induced the expression of GFP
manganese ethylenebis(dithiocarbamate) [(8)]	− (the number of the cells having a higher fluorescence than the control was under 1%)	− (the number of the cells having a higher fluorescence than the control was under 1%)	
γ-hexachlorocyclohexane [(7)]	− (the number of the cells having a higher fluorescence than the control was under 1%)	− (the number of the cells having a higher fluorescence than the control was under 1%)	

Source: patent US20050112573A1, “Method of detecting toxic substance” (priority 2001, published 2005)
